“Also recorded” adds a separate entry of the source.
Experiments:
p34^cdc2 = target: T1, p34^cdc2 (Homo sapiens, UniProt P06493); test: H1 histone kinase assay of p34cdc2 immunoprecipitated from treated HCT116 cells; format: cell-based
T1 construct: p34^cdc2 that was immunoprecipitated from HCT116 cells treated with vehicle for 6 to 48 hours consistently phosphorylated histone H1; endogenous in cells; host or cells: HCT116 colorectal carcinoma cells
Method: As shown in FIG. 2C (lanes labeled None), p34^cdc2 that was immunoprecipitated from HCT116 cells treated with vehicle for 6 to 48 hours consistently phosphorylated histone H1.

[1] = system: in vivo adapted p53^+/+ HCT116 cells; test: Xenograft tumor model with in vivo adapted p53+/+ HCT116 cells; set-up: species or system CB17 SCID/beige mice
Method: In vivo adapted p53^+/+ HCT116 cells (2.5×10^6) were injected in the flank of CB17 SCID/beige mice (Taconics, Germantown, N.Y.) and allowed to form palpable solid tumors for 4-6 days. […] Tumor measurements were taken daily for a week with a caliper. Tumor volume was calculated according to the formula ½ [length (mm)]×[width (mm)]^2.
Adapted HCT116 cells in CB-17 SCID/beige mice gave rise to rapidly growing solid tumors over a one-week period. […] See filled-in circles in FIG. 7.

p53^−/− HCT116 cells = test: Hypodiploid DNA content by propidium iodide staining and flow cytometry, p53-/- HCT116; format: cell-based
Method: (§1) Cells were collected and centrifuged at 3,000 rpm for 5 minutes at 4° C., and washed in PBS (pH 7.2). The cell pellet was solubilized in lysis buffer (20 mM Tris, pH 7.2, 0.5% deoxycholate, 1% Triton X-100, 0.1% SDS, 150 mM NaCl, 1 mM EDTA) containing proteases inhibitors (Complete, Roche Applied Science) for 30 min at 4° C. The lysate was cleared by centrifugation for 15 minutes, and protein concentration was evaluated using a Bio-Rad protein assay system (Bio-Rad Laboratories, Hercules, Calif.). Samples (30 μg) were separated by SDS-polyacrylamide gel, transferred to nylon membranes (Millipore), and incubated with primary antibodies to p53 (Oncogene Research Products, FL-393, Santa Cruz Biotechnology, Inc., Santa Cruz, Calif.), p21^Waf1/Cip1 (Oncogene Research Products), XIAP (BD Transduction Laboratories), survivin (NOVUS Biologicals, Littleton, Colo.), MDM2 (Santa Cruz Biotechnology, Inc.), p14^ARF (NOVUS Biologicals), caspase-3 (Cell Signaling Technology), cleaved caspase-3 (Cell Signaling Technology), β-catenin (BD Transduction Laboratories), cyclin B1 (GNS1, Santa Cruz Biotechnology, Inc.), GSK3β (Santa Cruz Biotechnology, Inc.), or β-sactin (Sigma) with detection of reactive bands by chemiluminescence (Amersham). Cells were analyzed for hypodiploid DNA content by propidium iodide staining and flow cytometry as described in O'Connor et al., Cancer Cell, 2:43-54 (2002). Chemicals whose source is not explicitly listed were or can be obtained from Sigma.
The functional consequences of GSK3β inhibition were explored. Source and maintenance of p53^+/+ and p53^−/− HCT116 colorectal carcinoma cells were as described in Example 2. […] Alternatively, cells were incubated with GSK3β inhibitors LiCl (30 mM) or TDZD (20 μM), harvested after 48 hours and analyzed for cell viability (propidium iodide, red channel) and active caspase-3/7 activity (green channel, […]®, from Chemicon International Inc., Temecula, Calif.), by multiparametric flow cytometry as reported previously in Kim et al., Lancet, 362:205-209 (2003). […]

[2] = system: p53^+/+ HCT116 colorectal carcinoma cells; test: Western blotting of p53 pathway proteins in treated p53+/+ HCT116 cells; format: cell-based
Method: as §1
To explore the link between GSK3β inhibition and p53 modulation, in vivo, HCT116 cells were treated with Li, TDZD or SB216763, and analyzed cells by Western blotting. p53^+/+ or p53^−/− HCT116 cells were incubated with the following GSK3β inhibitors, LiCl (Sigma, 30 mM), thiadiazolidinone-8 (TDZD) (Calbiochem, 0-20 μM), or SB216763 (Sigma, 20 μM), cells were harvested after 6-24 hours, and samples were analyzed by Western blotting as described in Example 2. […]

[3] = system: p53^−/− HCT116 colorectal carcinoma cells; test: Western blotting of p53 pathway proteins in treated p53-/- HCT116 cells; format: cell-based
Method: as §1
To explore the link between GSK3β inhibition and p53 modulation, in vivo, HCT116 cells were treated with Li, TDZD or SB216763, and analyzed cells by Western blotting. p53^+/+ or p53^−/− HCT116 cells were incubated with the following GSK3β inhibitors, LiCl (Sigma, 30 mM), thiadiazolidinone-8 (TDZD) (Calbiochem, 0-20 μM), or SB216763 (Sigma, 20 μM), cells were harvested after 6-24 hours, and samples were analyzed by Western blotting as described in Example 2.

p42/p44 MAP kinase = conditions: in vivo, Knockaert et al.; cited from earlier work

T1 sequence (P06493 whole entry): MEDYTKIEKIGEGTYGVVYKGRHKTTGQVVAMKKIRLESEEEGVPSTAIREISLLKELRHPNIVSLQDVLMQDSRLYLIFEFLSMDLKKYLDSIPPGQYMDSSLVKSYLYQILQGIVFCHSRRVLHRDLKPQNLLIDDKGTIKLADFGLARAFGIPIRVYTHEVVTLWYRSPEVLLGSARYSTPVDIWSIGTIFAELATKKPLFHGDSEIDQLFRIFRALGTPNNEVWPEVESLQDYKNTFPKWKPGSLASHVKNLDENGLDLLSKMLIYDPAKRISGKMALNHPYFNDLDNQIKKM
T1 sequence (P14635 whole entry partner): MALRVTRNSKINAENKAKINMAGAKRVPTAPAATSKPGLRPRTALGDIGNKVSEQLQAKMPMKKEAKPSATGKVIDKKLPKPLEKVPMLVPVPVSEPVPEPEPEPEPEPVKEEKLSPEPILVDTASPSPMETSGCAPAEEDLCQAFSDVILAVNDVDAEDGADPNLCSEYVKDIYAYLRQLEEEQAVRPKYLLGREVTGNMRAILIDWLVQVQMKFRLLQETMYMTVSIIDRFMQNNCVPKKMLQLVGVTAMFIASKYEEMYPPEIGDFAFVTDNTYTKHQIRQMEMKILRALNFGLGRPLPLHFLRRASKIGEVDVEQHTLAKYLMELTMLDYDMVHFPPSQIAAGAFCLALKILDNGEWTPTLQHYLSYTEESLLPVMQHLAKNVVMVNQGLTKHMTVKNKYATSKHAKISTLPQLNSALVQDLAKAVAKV

For `CC(C)[C@H](CO)Nc1nc(Nc2cccc(Cl)c2)c2ncn(C(C)C)c2n1` [Purvalanol A], which “p34^cdc2 kinase activity (histone H1 phosphorylation)” value (p34^cdc2; 6 and 12 hours of treatment) is on record?
Its value is “no apparent inhibition of p34^cdc2 kinase activity”.

What about the “p34^cdc2 kinase activity (histone H1 phosphorylation)” value (p34^cdc2; 24 and 48 hours of treatment) of the same compound?
The value was “did appear to suppress histone H1 phosphorylation”.

What about the “systemic toxicity, weight loss” value ([1]; 20 mg/kg i.p. daily for 5 consecutive days) of the same compound?
The value was “No signs of systemic toxicity or weight loss”.

And the “early tumor growth (tumor volume)” value ([1]; 25 mg/kg i.p. daily for 5 days)?
The value was “significantly inhibited early tumor growth”.

What about the “tumor growth (tumor volume)” value ([1]; 50 mg/kg i.p. injection daily for 5 days, versus lower dose) of the same compound?
Its value is “did not result in further inhibition of tumor growth”.

What about the “local or systemic toxicity, weight loss” value ([1]; 25 and 50 mg/kg i.p. daily for 5 days) of the same compound?
The value was “no signs of local or systemic toxicity or weight loss”.

And the “apoptosis / cell death (hypodiploid DNA content)” value (p53^−/− HCT116 cells; 0-20 μM, 48 hours)?
The value was “largely resistant to Purvalanol A-induced cell death”.

And the “cell cycle effect (DNA content)” value (p53^−/− HCT116 cells; 0-20 μM, 48 hours)?
The value was “sustained G2/M arrest”.

And the “enhancement of cell death in survivin-ablated (S4) vs VIII transfectants treated with Purvalanol A” value (p53^−/− HCT116 cells; survivin RNAi (S4), Purvalanol A 5 μM, 24 hour)?
The value was 2.5 fold.

And the “MDM2 expression (Western blot)” value ([2]; HCT116 cells)?
Its value is “reduced expression”.

What about the “p14^ARF expression (Western blot)” value ([2]; HCT116 cells, relative to vehicle) of the same compound?
Its value is “upregulation of p14^ARF”.

What about the “XIAP expression (Western blot)” value ([2]; p53+/+ HCT116) of the same compound?
The value was “no changes in the expression”.

What about the “survivin expression (Western blot)” value ([2]; p53+/+ HCT116) of the same compound?
The value was “loss of survivin expression; also recorded: time-dependent downregulation of survivin”.

And the “caspase-3 cleavage (Western blot)” value ([2]; p53+/+ HCT116, 10 μM, 6-48 hour)?
Its value is “time-dependent cleavage of 32 kD proform caspase-3 to active caspase-3 fragments”.

What about the “p21^Waf1/Cip1 expression (Western blot)” value ([2]; p53+/+ HCT116, 6-24 hours) of the same compound?
Its value is “upregulation of p21^Waf1/Cip1”.

And the “p53 expression (Western blot)” value ([2]; p53+/+ HCT116, 6-24 hours)?
Its value is “time-dependent accumulation of p53”.

What about the “p53-reactive material (Western blot)” value [3] of the same compound?
The value was “did not modulate the expression of p53-reactive material”.

What about the “survivin expression (Western blot)” value [3] of the same compound?
The value was “no significant changes in survivin levels”.

What about the “suppression of p42/p44 MAP kinase” value (p42/p44 MAP kinase) of the same compound?
The value was “equally effective”.

Reference: US20060204980A1, “Colorectal cancer therapies” (priority 2004, published 2006)
